Reference: EP1097196B2, “GL[…]” (priority 1998, dated 2000)

Assays:
Experiment in all cases: Specific activity as kcat on purified enzyme
Format in all cases: biochemical
Details in all cases: pH 4.3, 37°C, purified sample
[1] = system: Aspergillus niger glucoamylase AMG G2 (SEQ ID NO: 2) variant G127A
Description: (§1) Maltose: 29mM (1g maltose in 100ml 50mM sodium acetate, pH 4.5) (Sigma) Maltoheptaose: 10 mM, 115 mg/10 ml (Sigma)
(§2) Determining Specific Activity As kcat (sec.^-1).
(§3) 750 microL substrate (1% maltose, 50 mM Sodium acetat, pH 4.3) is incubated 5 minutes at selected temperature, such as 37°C or 60°C.
(§4) 50 microL enzyme diluted in sodium acetate is added. Aliquots of 100 microL are removed after 0, 3, 6, 9 and 12 minutes and transferred to 100 microL 0.4 M Sodium hydroxide to stop the reaction. A blank is included. 20 microL is transferred to a Micro titre plates and 200 microL GOD-Perid solution is added. Absorbance is measured at 650 nm after 30 minutes incubation at room temperature. Glucose is used as standard and the specific activity is calculated as kcat (sec.^-1).
(§5) AMG G2 variants were constructed as described above in Example 1. The specific activity as kcat were measured on purified samples at pH 4.3, 37°C, using maltose and maltohepatose as substrate as described in the "Materials & Methods" section above. The specific activity as AGU/mg were also measured at pH 4.3, 37°C, using maltose as substrate as described in the "Materials & Methods" section above.

[2] = system: Aspergillus niger glucoamylase AMG G2 (SEQ ID NO: 2) variant G207N
Description: as §1, §2, §3, §4, §5

[3] = system: Aspergillus niger glucoamylase AMG G2 (SEQ ID NO: 2) variant N110T
Description: as §1, §2, §3, §4, §5

[4] = system: Aspergillus niger glucoamylase AMG G2 (SEQ ID NO: 2) variant S119P
Description: as §1, §2, §3, §4, §5

[5] = system: Aspergillus niger glucoamylase AMG G2 (SEQ ID NO: 2) variant V111P
Description: as §1, §2, §3, §4, §5

[6] = system: Aspergillus niger glucoamylase AMG G2 (wt), SEQ ID NO: 2
Description: as §1, §2, §3, §4, §5

OC[C@H]1O[C@H](O[C@H]2[C@H](O)[C@@H](O)C(O)O[C@@H]2CO)[C@H](O)[C@@H](O)[C@@H]1O (mixture of isomers) [Maltose]
Kcat (Maltose) ([1]; substrate maltose): 21.0 sec.-1 | Kcat (Maltose) ([2]; substrate maltose): 30.5 sec.-1 | Kcat (Maltose) ([3]; substrate maltose): 9.7 sec.-1 | Kcat (Maltose) ([4]; substrate maltose): 6.2 sec.-1 | Kcat (Maltose) ([5]; substrate maltose): 12.0 sec.-1 | Kcat (Maltose) ([6]; substrate maltose): 6.0 sec.-1

OC[C@H]1O[C@H](O[C@H]2[C@H](O)[C@@H](O)[C@@H](O[C@H]3[C@H](O)[C@@H](O)[C@@H](O[C@H]4[C@H](O)[C@@H](O)[C@@H](O[C@H]5[C@H](O)[C@@H](O)[C@@H](O[C@H]6[C@H](O)[C@@H](O)[C@@H](O[C@H]7[C@H](O)[C@@H](O)C(O)O[C@@H]7CO)O[C@@H]6CO)O[C@@H]5CO)O[C@@H]4CO)O[C@@H]3CO)O[C@@H]2CO)[C@H](O)[C@@H](O)[C@@H]1O (stereo partly drawn) [Maltoheptaose]
Kcat (Maltoheptaose) ([1]; substrate maltoheptaose): 40.0 sec.-1 | Kcat (Maltoheptaose) ([2]; substrate maltoheptaose): 36.3 sec.-1 | Kcat (Maltoheptaose) ([3]; substrate maltoheptaose): 27.8 sec.-1 | Kcat (Maltoheptaose) ([4]; substrate maltoheptaose): 44.0 sec.-1 | Kcat (Maltoheptaose) ([5]; substrate maltoheptaose): 43.2 sec.-1 | Kcat (Maltoheptaose) ([6]; substrate maltoheptaose): 38 sec.-1
